Data taken from patent publication US20190127705A1, “METHOD FOR CULTURING MULTIPLE OVARIAN FOLLICLES BY USING ANGIOTENSIN II RECEPTOR AGONIST” (SEOUL NATIONAL UNIVERSITY R&DB FOUNDATION, priority 2016, published 2019).
Entries after “also recorded” stand apart in the source; their conditions may differ.

Legend:
Assay type in all cases: cell-based, mouse
[1] = test system: cluster of multiple follicles; assay: in vitro culturing of a cluster of multiple follicles (growth, follicle fluid, maturation rate); settings: for growth of the cluster of multiple follicles: cluster of two to four joined follicles, fifth day compared with 13th day
Excerpt: (§1) Specifically, an ovary was separated from a 14-day old mouse and placed in HBSS (Hank's balanced salt solution) containing 10% bovine serum. Then, pre-antral follicles in an early developmental stage were mechanically separated using a 28-gauge syringe needle. At this time, degenerated pre-antral follicles were removed, and healthy pre-antral follicles were used for a pre-antral follicle culturing. One separated pre-antral follicle was used for a single-follicle culturing, and a cluster including two to four pre-antral follicles joined together was used for culturing a cluster of multiple follicles.
(§2) After 25 20 μl culture liquid droplets were made on each culture dish (Falcon 3000, BD Biosciences, 60×15 mm), the collected single pre-antral follicle, or the cluster of multiple follicles consisting of 2 to 4 joined pre-antral follicles were seeded to each droplet. Then, those follicles were cultured in a 5% CO2 incubator at 37° C. for about 2 weeks. The culture liquid used here is Opti-MEM medium (Invitrogen) including insulin, 5% bovine serum, recombinant follicle stimulating hormone (FSH, Gonal-F®, Merck Serono, 0.2 IU/mL) and recombinant luteinizing hormone (LH, Luveris®, Merck Serono, 0.1 IU/mL). The culture liquid was changed in half with new medium every two days. In culturing process, a follicle morphology was observed using an inverted microscope (TE-2000; Nikon).
(§3) In order to observe a follicle culturing effect based on a regulation of the angiotensin II receptor, the single pre-antral follicle and the cluster of multiple follicles were compared and analyzed by divided into 3 groups: control group, angiotensin II receptor agonist (CGP-42112, Sigma)-treated group, and angiotensin II receptor antagonist (Saralasin, Sigma)-treated group. Specifically, the single pre-antral follicle and the cluster of multiple follicles were treated with the angiotensin II receptor agonist or the angiotensin II receptor antagonist to have a concentration of 10 ug/mL from day 5 of culturing.
(§4) On the 12th day of the culturing, it was observed that the pre-antral follicle was matured into an antral follicle. Then, the antral follicle was treated with recombinant human […], rhCG, Ovidrel®, Merck Serono) of 1.5 IU/m and human epidermal growth factor (hEGF) of 5 ng/mL in order to induce ovulation. At 16 to 18 hours after the ovulation induction, ovulation rate and maturation rate were calculated.
Specifically, the ovulation rate was calculated by counting the number of follicles ovulated after administration of the human […] and the human epidermal growth factor among the seeded follicles, and the maturation rate was calculated by counting the number of ova in MII phase among the ovulated ova. […]

[2] = test system: single pre-antral follicle; assay: in vitro culturing of a single pre-antral follicle (growth, ovulation and maturation after ovulation induction); settings: for ovulation rate / growth of the follicle: single-follicle culturing, 10 ug/mL from day 5; for ovulation rate: 16 to 18 hours after ovulation induction, versus untreated single-follicle, FIG. 2; for growth of the follicle: fifth day compared with 13th day, versus untreated control (CTL), FIG. 1
Excerpt: as §1, §2, §3, §4
Specifically, the ovulation rate was calculated by counting the number of follicles ovulated after administration of the human […] and the human epidermal growth factor among the seeded follicles, and the maturation rate was calculated by counting the number of ova in MII phase among the ovulated ova.
In order to investigate effect of angiotensin II in culturing a single-follicle, growth and maturation rates based on the treatment with angiotensin II receptor agonist or angiotensin II receptor antagonist were intended to be investigated. […] Further, ovulation rates were investigated by inducing ovulation in the cultured follicles.

[3] = test system: mature follicle ovulated from cultured follicles; assay: in vitro fertilization of ova from cultured follicles and embryo observation
Protocol: In vitro fertilization was performed to evaluate fertilization rates of the ova obtained by the induction of ovulation. Specifically, a mature follicle ovulated in HTF (human tubal fluid) medium in the 5% CO2 incubator at 37° C. was fertilized with a sperm collected from a 8 week old male C57BL6 mouse. When cell division occur or two pronuclei are seen and a second polar body is observed, the ovum is regarded as fertilized.
In order to further confirm the effect of the angiotensin II in culturing the cluster of multiple follicles, maturation rate and fertilization rate were intended to be checked. Mature follicles were ovulated by treating them with the angiotensin II receptor agonist and inducing the ovulation via the method of Example 1 to Example 5. Then, the ovulated mature follicles were fertilized with sperms.

[4] = test system: multiple follicles cultured collectively; assay: culturing multiple follicles collectively (growth, follicle fluid); settings: multiple follicles collectively treated with agonist; bottom of FIG. 8
Excerpt: as §1, with “follicles. […]” for “follicles.”
In order to observe a follicle culturing effect based on a regulation of the angiotensin II receptor, the single pre-antral follicle and the cluster of multiple follicles were compared and analyzed by divided into 3 groups: control group, angiotensin II receptor agonist (CGP-42112, Sigma)-treated group, and angiotensin II receptor antagonist (Saralasin, Sigma)-treated group. […]
On the 12th day of the culturing, it was observed that the pre-antral follicle was matured into an antral follicle. […] At 16 to 18 hours after the ovulation induction, ovulation rate and maturation rate were calculated. […]

[5] = 10 ug/mL from day 5, FIG. 3, FIG. 8 top

| Compound | growth of the cluster of multiple follicles [1, 5] | ovulation rate [2] | growth of the follicle [2] | cleavage of an embryo ([3]; after fertilizing matured follicles from agonist-treated cultures, FIG. 7) | fertilization rates ([3]; single-follicle culturing compared with culturing of the cluster of multiple follicles, agonist treated, FIG. 6) | accumulation of the follicle fluid in the follicle ([1]; cluster of multiple follicles, 10 ug/mL from day 5, FIG. 3, FIG. 8 top) | maturation rate ([1]; culturing of the cluster of multiple follicles with agonist treatment, ova in MII phase among ovulated ova, FIG. 5) [%] | follicle fluid accumulation in the follicles [4] | growth of the follicles [4] | maturation rate ([2]; single-follicle culturing with agonist treatment, ova in MII phase among ovulated ova, FIG. 5) [%] |
| --- | --- | --- | --- | --- | --- | --- | --- | --- | --- | --- |
| CNCC(=O)N[C@@H](CCCN=C(N)N)C(=O)N[C@H](C(=O)N[C@@H](Cc1ccc(O)cc1)C(=O)N[C@H](C(=O)N[C@@H](Cc1cnc[nH]1)C(=O)N1CCC[C@H]1C(=O)N[C@@H](C)C(=O)O)C(C)C)C(C)C [angiotensin II receptor antagonist, Saralasin] | did not grow simultaneously but fell into apoptosis during development | not significantly different | growing at a level similar to a single-follicle (control group, CTL) that had not been treated |  |  |  |  |  |  |  |
| CGP-42112 [angiotensin II receptor agonist] | growth of all follicles was significantly promoted; also recorded: significantly promoted to grow | not significantly different | growing at a level similar to a single-follicle (control group, CTL) that had not been treated | progression of cleavage of an embryo was observed | no significant difference | increased; also recorded: clearly observed in the all follicles | 26.8 | almost no follicle fluid accumulation | all follicles promoted to grow but fell into apoptosis during development | 11 |
